Tests used:
brain = experiment: Matured TTM-001 and TTM-002 variants, NGS enrichment in mouse brain; format: in vivo, mice; conditions: relative to AAV9 control
[1] = system: brains, heart, liver, muscle, and DRG of the NHPs; experiment: Maturation of TTM-001 and TTM-002 capsids, NGS enrichment in NHP tissues; format: in vivo; conditions: relative to AAV9 control
Outline: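 Variants carry mutations within and flanking the loop IV peptide insert: positions 450–466 were triplet-randomized, while positions 449–466 received low-frequency point mutations. The combined pool went into two NHPs, and each peptide was scored by NGS enrichment ratio against AAV9.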

[2] = NGS fold-enrichment, mouse brain
[3] = NGS fold-enrichment of RNA, NHP brain
[4] = NGS fold-enrichment, NHP liver DNA
[5] = NGS fold-enrichment, NHP liver RNA
[6] = NGS fold-enrichment, NHP muscle
[7] = NGS fold-enrichment, brain of mice
[8] = NGS fold-enrichment, DRG of NHPs
[9] = NGS fold-enrichment, RNA, brain of NHPs
[10] = NGS fold-enrichment, heart of NHPs
[11] = NGS fold-enrichment, liver DNA of NHPs
[12] = NGS fold-enrichment, liver RNA of NHPs
[13] = NGS fold-enrichment, muscle of NHPs
[14] = NGS fold-enrichment of matured AAV capsid variants, NHP brain, RNA

| Sequence | Fold Enrichment relative to AAV9, Brain (Mouse) (brain; [2]) [fold] | Fold Enrichment relative to AAV9, Brain (NHP) [1, 3] [fold] | Fold Enrichment relative to AAV9, DRG (NHP) ([1]; NGS fold-enrichment, NHP DRG) [fold] | Fold Enrichment relative to AAV9, Heart (NHP) ([1]; NGS fold-enrichment, NHP heart) [fold] | Fold Enrichment relative to AAV9, Liver DNA (NHP) [1, 4] [fold] | Fold Enrichment relative to AAV9, Liver RNA (NHP) [1, 5] [fold] | Fold Enrichment relative to AAV9, Muscle (NHP) [1, 6] [fold] | Fold Enrichment relative to AAV9, Brain (Mouse) (brain; [7]) [fold] | Fold Enrichment relative to AAV9, DRG (NHP) [1, 8] [fold] | Fold Enrichment relative to AAV9, Brain (NHP) [1, 9] [fold] | Fold Enrichment relative to AAV9, Heart (NHP) [1, 10] [fold] | Fold Enrichment relative to AAV9, Liver DNA (NHP) [1, 11] [fold] | Fold Enrichment relative to AAV9, Liver RNA (NHP) [1, 12] [fold] | Fold Enrichment relative to AAV9, Brain (Mouse) (brain; mouse brain) [fold] | Fold Enrichment relative to AAV9, Brain (NHP) [1, 14] [fold] | Fold Enrichment relative to AAV9, DRG (NHP) ([1]; NHP DRG) [fold] | Fold Enrichment relative to AAV9, Heart (NHP) ([1]; NHP heart) [fold] | Fold Enrichment relative to AAV9, Liver DNA (NHP) ([1]; NHP liver, DNA) [fold] | Fold Enrichment relative to AAV9, Liver RNA (NHP) ([1]; NHP liver, RNA) [fold] | Fold Enrichment relative to AAV9, Muscle (NHP) ([1]; NHP muscle) [fold] | also measured |
| --- | --- | --- | --- | --- | --- | --- | --- | --- | --- | --- | --- | --- | --- | --- | --- | --- | --- | --- | --- | --- | --- |
| KTITGHDSPHKSGQHLQT | 4.187 | 137.945 | 0.000 | 0.072 | 0.000 | 0.000 | 0.000 | – | – | – | – | – | – | – | – | – | – | – | – | – | – |
| KTITGHDSPHKSGQNQWT | 7.744 | 81.658 | 0.000 | 0.090 | 0.000 | 0.936 | 0.000 | – | – | – | – | – | – | – | – | – | – | – | – | – | – |
| KTITGSGSPHSKAQTQLT | – | – | – | – | – | – | – | 55.640 | 0.160 | 60.846 | 8.992 | 0.000 | 0.000 | – | – | – | – | – | – | – | Fold Enrichment relative to AAV9, Muscle (NHP) [1, 13]: 0.000 fold |
| KTIYGHDSPHKSVQNQLT | 12.323 | 92.381 | 0.000 | 0.043 | 0.016 | 0.103 | 0.000 | – | – | – | – | – | – | – | – | – | – | – | – | – | – |
| KTLNGNGSPHSKAQNLQT | – | – | – | – | – | – | – | – | – | – | – | – | – | 159.134 | 54.458 | 0.668 | 0.000 | 0.172 | 0.161 | 0.000 | – |
| KTNNGGGSPHSKAQNLQT | – | – | – | – | – | – | – | – | – | – | – | – | – | 80.506 | 54.963 | 0.000 | 0.000 | 0.089 | 0.000 | 0.000 | – |
| KTNNGHDSPHKSVQNQHT | 7.934 | 115.172 | 0.000 | 0.083 | 0.062 | 0.000 | 0.000 | – | – | – | – | – | – | – | – | – | – | – | – | – | – |
| KTNNGSGSPHSKAQNQQY | – | – | – | – | – | – | – | 82.656 | 0.000 | 68.530 | 0.040 | 0.059 | 0.000 | – | – | – | – | – | – | – | Fold Enrichment relative to AAV9, Muscle (NHP) [1, 13]: 0.000 fold |
| KTRDASGSPHSKAQNQQT | – | – | – | – | – | – | – | – | – | – | – | – | – | 52.089 | 52.861 | 0.000 | 0.000 | 0.402 | 1.062 | 0.010 | – |
| KTREISGSPHSKAQNQQT | – | – | – | – | – | – | – | – | – | – | – | – | – | 51.696 | 59.027 | 0.000 | 0.042 | 0.269 | 0.356 | 0.224 | – |
| KTSNASGSPHSKAHNQQT | – | – | – | – | – | – | – | 67.967 | 0.000 | 59.607 | 0.078 | 0.050 | 0.031 | – | – | – | – | – | – | – | Fold Enrichment relative to AAV9, Muscle (NHP) [1, 13]: 0.067 fold |
| KTSNASGSPHSKAQHQQT | 40.558 | 165.206 | 0.000 | 0.000 | 0.082 | 0.000 | 0.000 | – | – | – | – | – | – | – | – | – | – | – | – | – | – |
| KTSNASGSPHSKAQNQLT | – | – | – | – | – | – | – | 150.401 | 0.000 | 73.501 | 0.000 | 0.313 | 0.000 | – | – | – | – | – | – | – | Fold Enrichment relative to AAV9, Muscle (NHP) [1, 13]: 0.297 fold |
| KTSNESGSPHSKAQNHQT | 70.590 | 75.720 | 0.000 | 0.000 | 0.217 | 0.169 | 0.000 | 70.590 | 0.000 | 75.720 | 0.000 | 0.217 | 0.169 | – | – | – | – | – | – | – | Fold Enrichment relative to AAV9, Muscle (NHP) [1, 13]: 0.000 fold |
| KTSNGGGSPHSKAQNLQT | – | – | – | – | – | – | – | 124.871 | 0.000 | 68.311 | 0.052 | 0.000 | 0.000 | – | – | – | – | – | – | – | Fold Enrichment relative to AAV9, Muscle (NHP) [1, 13]: 0.000 fold |
| KTSNGHDSPHKSGQNQPA | 8.501 | 75.834 | 0.000 | 0.056 | 0.000 | 0.000 | 0.000 | – | – | – | – | – | – | – | – | – | – | – | – | – | – |
| KTSNGSGSPHSKAHYQQT | – | – | – | – | – | – | – | – | – | – | – | – | – | 54.162 | 54.414 | 0.000 | 0.251 | 0.204 | 0.249 | 0.000 | – |
| KTSNGSGSPHSKAQNLQI | – | – | – | – | – | – | – | – | – | – | – | – | – | 74.823 | 52.843 | 0.000 | 0.000 | 0.214 | 0.178 | 1.605 | – |
| KTSNGSGSPHSKAQNPPT | 51.541 | 91.528 | 0.000 | 0.000 | 0.039 | 0.000 | 0.000 | 51.541 | 0.000 | 91.528 | 0.000 | 0.039 | 0.000 | – | – | – | – | – | – | – | Fold Enrichment relative to AAV9, Muscle (NHP) [1, 13]: 0.000 fold |
| KTSNGSGSPHSKAQNQST | – | – | – | – | – | – | – | – | – | – | – | – | – | 120.897 | 53.353 | 0.000 | 0.000 | 0.014 | 0.000 | 0.000 | – |
| KTSNGSGSPHSKAQNYQT | – | – | – | – | – | – | – | – | – | – | – | – | – | 63.681 | 57.894 | 0.000 | 0.082 | 0.110 | 0.000 | 0.000 | – |
| KTSNGYDSPHKSGQKQQT | 8.813 | 77.001 | 0.032 | 0.286 | 0.016 | 0.000 | 0.000 | – | – | – | – | – | – | – | – | – | – | – | – | – | – |

Reference: patent publication US20260250318A1, “COMPOSITIONS AND METHODS FOR CROSSING THE BLOOD BRAIN BARRIER” (VOYAGER THERAPEUTICS, INC., priority 2022, published 2026)
